From patent US5414001A, “Antineoplastic pyrrolo[4,3,2-de]quinolin-8(1H)-ones” (American Cyanamid Company, priority 1993, dated 1995)
Structures can show the parent of a compound that is named as a salt. Where two headings read alike, the source gives them in different places.

How the values were obtained:
HCT15 / SKBR3 = assay: SRB cytotoxicity ratio HCT15/SKBR3 (topoisomerase resistance); type: cell-based, human; conditions: 2880 min
[1] = test system: panel of >20 human tumor cell lines; assay: In vitro tumor panel evaluation, Sulforhodamine B (SRB) cytotoxicity assay; type: cell-based; conditions: for IC50: Homo sapiens
[2] = test system: DDP (Cisplatin resistant ovarian carcinoma cell line) / S (A2780); assay: SRB cytotoxicity ratio DDP/S (cisplatin resistance); type: cell-based, human; conditions: 2880 min
CaCo2 / CX1 = conditions: human, Caco-2, 48 h
Description: The cytotoxic activity of the pyrrolo[4,3,2-de]quinolin-8(1H)-ones against a panel of >20 human tumor cell lines is determined using the Sulforhodamine B protein dye-binding colorimetric cytotoxicity assay (SRB) described by Skehan et al. (Journal National Cancer Institute 82:1107-1112, 1990), as modified by Monks et al., (Journal National Cancer Institute 83: 757-766, 1991). […] Positive controls (i.e., etoposide) are included in every experiment. Treatments are for 48 hours, after which cells are fixed in 10% trichloroacetic acid (10% final concentration), washed five times with deionized water and stained with SRB solution (0.4% in glacial acetic acid). Protein-bound stain is solubilized with 0.1 ml tris buffer and the adsorbance values are recorded with a microplate reader. Duplicate plates of cells are fixed with trichloroacetic acid at the time of drug addition to establish To values, as described by Monks et al. (JNCl, 83: 757-766, 1991). The effect of drug treatments over the five-long range of concentrations is calculated using the formula, T--To/C--To, to determine the IC50 values.
3) The ratio values for DDP/S; CaCo2/CX1; MIP/SW620, and; HCT15/SKBR3 refer to the IC50 value for resistant cell lines included in the tumor cell panel, divided by the IC50 value for corresponding drug sensitive cell lines. For example, DDP is a Cisplatin resistant ovarian carcinoma cell line, and S is the corresponding parent drug sensitive ovarian carcinoma cell line (A2780). […] CaCo2 is a slow growing non P-glycoprotein multidrug resistant colon carcinoma cell line. MIP is a colon carcinoma cell line that expresses P-glycoprotein and is multidrug resistant; SW620 is a drug sensitive colon carcinoma cell line. HCT15 is a colon carcinoma cell line that is resistant to topoisomerase inhibitors and SKBR3 is a breast carcinoma that is very sensitive to topoisomerase inhibitors.

MIP / SW620 = assay: SRB cytotoxicity ratio MIP/SW620 (MDR, P-glycoprotein resistance); type: cell-based, human; conditions: IC50 resistant / IC50 sensitive cell line; MDR (pglycoprotein) resistance; 2880 min
[3] = IC50 resistant / IC50 sensitive cell line, topoisomerase resistance
[4] = Mean IC50 value for all 20 cell lines, 48 hours
[5] = IC50 resistant / IC50 sensitive cell line, cisplatin resistance
[6] = human, ddp/s ovarian carcinoma cells
[7] = Mean IC50 value for all 20 cell lines, 48 hours, read-out: AVG IC50
[8] = least sensitive cell line, 48 hours, read-out: MAX IC50
[9] = most sensitive cell line, 48 hours, read-out: MIN IC50

Molecule | CaCO2/CX1 IC50 ratio (CaCo2 / CX1) | HCT15/SKBR3 IC50 ratio (HCT15 / SKBR3; [3]) | DDP/S IC50 ratio [2, 5] | IC50 [1, 7] [µg/mL] | IC50 [1, 8] [µg/mL] | IC50 [1, 9] [µg/mL] | also measured
7-(Cyclohexylamino)-1,3,4,8-tetrahydro-5-methyl-8-oxo-pyrrolo[4,3,2-de]quinolinium trifluoroacetate [Example 41] | 8.3 | 737.0 | 1.8 | – | – | – | AVG IC50 [1, 4]: 6.5 µg/mL
CC(CCC(C)NC1=CC2=[N+](C)CCc3c[nH]c(c32)C1=O)NC1=CC2=[N+](C)CCc3c[nH]c(c32)C1=O (racemic) [Example 57, 7,7'-(1,4-Dimethyl-1,4-butanediyldiimino)-bis[1,3,4,8-tetrahydro-5-methyl-8-oxo-pyrrolo[4,3,2-de]quinolinium trifluoroacetate] | 100.8 | – | – | – | – | – | HCT15/SKBR3 IC50 ratio (HCT15 / SKBR3; human, hct15/skbr3 cells): 32.1; IC50 ([1]; 48 h, read-out: AVG IC50): 13 µg/mL; IC50 ([1]; 48 h, read-out: MAX IC50): 50 µg/mL; IC50 ([1]; 48 h, read-out: MIN IC50): 0.43 µg/mL; DDP/S IC50 ratio [2, 6]: 1.8
O=C1CC2SC3CC2(C=C1Br)C1=C(N3)C(=O)c2[nH]cc3c2C1=NCC3 (centres unmarked) [Example 9, discorhabdin A] | – | – | – | – | – | – | DDP/S IC50 ratio [2, 6]: 1.4
C[N+]1=C2C=C(NCc3ccc(C(=O)O)cc3)C(=O)c3[nH]cc(c32)CC1 [Example 45, 7-[[(4-Carboxylphenyl)methyl]amino]-1,3,4,8-tetrahydro-5-methyl-8-oxo-pyrrolo[4,3,2-de]quinolinium trifluoroacetate] | – | 1.6 | 1.2 | 33 | 50 | 8.99 | MIP/SW620 IC50 ratio (MIP / SW620): 1.2
Cn1cc2c3c1C(=O)C(=O)C=C3NCC2.O=C(O)C(F)(F)F [Example 51, 1,3,4,5-Tetrahydro-1-methyl-pyrrolo[4,3,2-de]quinoline-7,8-dione trifluoroacetate] | – | – | – | 48 | 50 | 35.6 | –

More lines, main results first:

CaCO2/CX1 IC50 ratio (CaCo2 / CX1) | Molecule | HCT15/SKBR3 IC50 ratio (HCT15 / SKBR3; [3]) | DDP/S IC50 ratio [2, 5] | IC50 [1, 7] [µg/mL] | IC50 [1, 8] [µg/mL] | IC50 [1, 9] [µg/mL] | also measured
7.3 | COC(=O)CCNC1=CC2=[N+](C)CCc3cn(Cc4ccccc4)c(c32)C1=O [Example 25, 1,3,4,8-tetrahydro-7-[(3-methoxy-3-oxopropyl)amino]-5-methyl-8-oxo-1-(phenylmethyl)pyrrolo[4,3,2-de]quinolinium trifluoroacetate] | 23.5 | 6.1 | 13 | 50 | 1.32 | –
15.1 | COC(=O)CCNC1=CC2=[N+](C)CCc3cn(CCC(=O)OC)c(c32)C1=O [Example 27, 1,3,4,8-Tetrahydro-1-(3-methoxy-3-oxopropyl)-7-[7-[(3-methoxy-3-oxopropyl)amino]-5-methyl-8-oxo-pyrrolo[4,3,2-de]quinolinium trifluoroacetate] | 288.0 | 5.1 | 15 | 50 | 0.17 | –
8.3 | CC(C)NC1=CC2=[N+](C)CCc3c[nH]c(c32)C1=O.O=C([O-])C(F)(F)F [Example 40, 1,3,4,8-Tetrahydro-5-methyl-7-[(2-methylethyl)amino]-8-oxo-pyrrolo[4,3,2-de]quinolinium trifluoroacetate] | 102.0 | 1.3 | – | – | – | AVG IC50 [1, 4]: 5.8 µg/mL; MAX IC50 ([1]; least sensitive cell line, 48 hours): 50 µg/mL; MIN IC50 ([1]; most sensitive cell line, 48 hours): 0.25 µg/mL
38.0 | COc1ccc(CNC2=CC3=[N+](C)CCc4c[nH]c(c43)C2=O)cc1 [Example 48, 1,3,4,8-Tetrahydro-7-[[(4-methoxyphenyl)methyl]amino]-5-methyl-8-oxo-pyrrolo[4,3,2-de]quinolinium trifluoroacetate] | 2090.0 | 11.0 | 7.7 | 50 | 0.02 | –
4.2 | Cc1[nH]c2c(c1C)C1=[N+](C)CCc3c[nH]c(c31)C2=O [Example 54, 3,5,6,7-Tetrahydro-1,8,9-trimethyl-6-oxo-2M-dipyrrolo[4,3,2-de:2',3'-h]quinolinium trifluoroacetate] | 3.9 | 1.2 | 18 | 50 | 2.26 | –
